# Test results from patent publication US7026135B2, “Biotin-peg-substrate for a lipase assay” (Amersham Biosciences UK Limited, priority 2000, dated 2006).
# Legend:
# Format in all cases: biochemical
# lipase [1] = assay: lipase assay, 384-well SPA format (YSi SPA beads); details: 30 nM lipase, room temperature, 60 minutes, read-out: IC50 inhibition of lipase activity
# Procedure: (§1) 384-well SPA and LEADseeker formats. 180 nM lipase substrate was added to streptavidin coated YSi beads at 10 mg/ml and 10% (v/v) Triton™ X-100 in the ratio of 2:3:1. Assays contained […] substrate precoated streptavidin YSi SPA beads or streptavidin yttrium oxide (YOx) LEADseeker beads (Amersham Pharmacia Biotech) (24 nM lipase substrate, 50 μg beads, 0.67% (v/v) Triton X-100), 30 nM lipase and assay buffer in a volume of 25 μl. In ‘no enzyme’ controls, approximately 6000 SPA cpm and 600 IOD's (Integrated Optical Density) were obtained. After incubation for 60 minutes at room temperature with agitation, assays were stopped by the addition of 25 μl 0.1M sodium citrate/citric acid, pH 4.0 and counted on either on a TopCount microplate scintillation counter (Packard Instruments Co., Meriden, Conn., USA) or imaged on LEADseeker (Amersham Pharmacia Biotech).
# (§2) Miniaturization of the lipase assay to 384-well format using SPA and LEADseeker. Using a reduced assay volume an enzyme titration was performed with YSi SPA beads and YOx LEADseeker beads (FIG. 5). Different profiles were obtained using the two assay formats and this may be a result of how the substrate is presented on the surface of the two bead types.
# (§3) 30 nM lipase was used and assays were incubated at room temperature for 60 minutes.
# lipase [2] = assay: lipase assay, 96-well SPA format, 'on bead'; details: YSi beads, 5 nM lipase, room temperature, 60 minutes, read-out: IC50 inhibition of lipase activity
# Procedure: 96-well SPA format. Using an ‘on bead’ assay format, 180 nM lipase substrate (i.e. HSL substrate prepared by the method described in Example 1) was added to streptavidin coated yttrium silicate (YSi) beads (Amersham Pharmacia Biotech) at 5 mg/ml and 10% (v/v) Triton™ X-100 in the ratio of 1:3:2. Triton X-100 was added to prevent non-specific binding of the tritiated product to beads. Assays contained 20 μl substrate precoated SPA beads (6 nM lipase substrate, 50 μg beads, 0.67% (v/v) Triton X-100), 5 nM lipase and assay buffer (50 mM Hepes, pH 7.5, 1 mM dithioerythritol (DTE) and 0.001% (v/v) C13E12) in a volume of 100 μl. In ‘no enzyme’ controls, approximately 15000 SPA cpm were obtained. After incubation for 60 minutes at room temperature with agitation, assays were stopped by the addition of 100 μl 0.1M sodium citrate/citric acid, pH 4.0 and counted on a TopCount™ microplate scintillation counter (Packard Instruments Co., Meriden, Conn., USA).
# Development of a lipase assay using a 96-well SPA assay format. Enzyme titrations were set up using ‘on’ and ‘off’ bead assay formats. In the ‘off’ bead format, the lipase substrate was not precoated onto SPA beads; instead the beads were added at the same time as the stop solution. […] It is thought that the binding of the substrate to the bead surface produced an artificial membrane environment necessary for optimal enzyme activity (FIG. 2). […]
# lipase [3] = assay: lipase assay, 384-well LEADseeker format (YOx LEADseeker beads); details: 30 nM lipase, room temperature, 60 minutes, read-out: IC50 inhibition of lipase activity
# Procedure: as §1, §2, §3
compound,measurement,setting,value
CC[C@@H](C)[C@@H](O)[C@H](C)C(=O)[C@H](C)/C=C(\C)C[C@H](C)[C@@H]1OC(=O)[C@H]1CC [Ebelactone B],IC50,lipase [1],32.3 µM
same,IC50,lipase [2],27.5 µM
same,IC50,lipase [3],18.2 µM
